Laboratory results from US12202826B2, “N-pyridinyl acetamide derivatives as inhibitors of the Wnt signaling pathway” (Redx Pharma PLC, priority 2014, dated 2025).

System: L-Wnt cells (murine Wnt-3a) / Leading Light Wnt Reporter Cells (luciferase under control of Wnt pathway response elements)
Assay: Dual-Cell β-Catenin Reporter Assay
Type: cell-based, Mouse
Conditions: luciferase signal reduced to 50% of DMSO control
Description: Dual-Cell β-Catenin Reporter Assay
Mouse L cells transfected to constitutively produce biologically active murine Wnt-3a, referred to as L-Wnt cells, were purchased from the American Type Culture Collection, ATCC, Manassas, VA (ATCC). These cells were cultured in DMEM supplemented with 10% FCS (Gibco/Invitrogen, Carlsbad, CA), 1% geneticin and 1% sodium pyruvate (Sigma) at 37° C. with 5% CO2. The cells were seeded into 96 well plates and treated with serial dilutions of compound diluted to 0.1% DMSO concentration. After 24 hours, cell supernatants were transferred to a 96 well plate previously seeded with Leading Light® Wnt Reporter Cells, stably transfected with a luciferase gene under control of Wnt pathway response elements. After a further 24 hours, cells are treated with One-glo luciferase assay system (Promega, Madison, WI) and the luminescent signal read by envision. The IC50 of the compound is determined as the concentration that reduces the induced luciferase signal to 50% of the DMSO control.
The category “+” refers to compounds with an IC50 of >100 μM. The category “++” refers to compounds with an IC50 of 5 to 100 μM. The category “+++” refers to compounds with an IC50<5 μM.

IC50 (category of IC50) | IC50 | Structure (SMILES)
< 5 nM |  | O=C(Cn1cc(-c2ccnc(C(F)(F)F)c2)cn1)Nc1ccc(-c2cnccn2)cn1 [compound 17]
< 5 nM |  | O=C(Cn1cc(-c2ccnc(C(F)F)c2)cn1)Nc1ccc(-c2cnccn2)cn1 [compound 21]
5 to 100 nM |  | Cc1ncsc1-c1cnn(CC(=O)Nc2ccc(-c3cnccn3)cn2)c1 [compound 25]
5 to 100 nM |  | Cn1nccc1-c1cnn(CC(=O)Nc2ccc(-c3cnccn3)cn2)c1 [compound 26]
> 100 nM |  | Cc1ncc(-c2cnn(CC(=O)Nc3ccc(-c4cnccn4)cn3)c2)s1 [compound 29]
> 100 nM |  | O=C(Cn1cc(-c2ccncn2)cn1)Nc1ccc(-c2cnccn2)cn1 [compound 30]
< 5 nM |  | Cc1cc(-c2c(C)nn(CC(=O)Nc3ccc(-c4cnccn4)cn3)c2C)ccn1 [compound 44]
> 100 nM |  | O=C(Cn1cc(-c2ccnn2C2CCCC2)cn1)Nc1ccc(-c2cnccn2)cn1 [compound 45]
5 to 100 nM |  | Cc1nn(CC(=O)Nc2ccc(-c3cnccn3)cn2)c(C)c1C1=CCN(C(=O)OC(C)(C)C)CC1 [compound 46]
< 5 nM |  | Cc1nn(CC(=O)Nc2ccc(-c3cnccn3)cn2)c(C)c1C1=CCOCC1 [compound 48]
5 to 100 nM |  | Cc1nn(CC(=O)Nc2ccc(C3=CCOCC3)cn2)c(C)c1-c1ccnc(C(F)(F)F)c1 [compound 49]
< 5 nM |  | Cc1nn(CC(=O)Nc2ccc(-c3ccnn3C)cn2)c(C)c1-c1ccnc(C(F)(F)F)c1 [compound 55]
< 5 nM |  | Cc1nn(CC(=O)Nc2ccc(-c3cnccn3)cn2)cc1-c1ccnc(C(F)(F)F)c1 [compound 56]
5 to 100 nM |  | Cc1nn(CC(=O)Nc2ccc(-c3ccncc3)cn2)c(C)c1-c1ccnc(C(F)(F)F)c1 [compound 60]
5 to 100 nM |  | Cc1nn(CC(=O)Nc2ccc(-c3cnccn3)cn2)c(C)c1-c1cnn(C(C)C)c1 [compound 62]
< 5 nM |  | Cc1nn(CC(=O)Nc2ccc(-c3ncccn3)cn2)c(C)c1-c1ccnc(C(F)(F)F)c1 [compound 65]
< 5 nM |  | Cc1cn(CC(=O)Nc2ccc(-c3cnccn3)cn2)nc1-c1ccnc(C(F)(F)F)c1 [compound 67]

IC50 (category of IC50) | IC50 | Structure (SMILES)
< 5 nM |  | Cc1nc(-c2ccnc(C(F)(F)F)c2)cn1CC(=O)Nc1ccc(-c2cnccn2)cn1 [compound 68]
5 to 100 nM |  | Cc1nn(CC(=O)Nc2ccc(-c3cnccn3)cn2)c(C)c1-c1cn(C)nc1C(F)(F)F [compound 70]
< 5 nM |  | Cc1nn(CC(=O)Nc2ccc(-c3ccnc(C#N)c3)cn2)c(C)c1-c1ccnc(C(F)(F)F)c1 [compound 71]
< 5 nM |  | Cc1nc(-c2ccnc(C(F)(F)F)c2)c(C)n1CC(=O)Nc1ccc(-c2cnccn2)cn1 [compound 72]
< 5 nM |  | Cc1nn(CC(=O)Nc2ccc(-c3cnccn3)cn2)c(C)c1-c1cc(N(C)C)nc(C(F)(F)F)n1 [compound 78]
5 to 100 nM |  | Cc1nn(CC(=O)Nc2ccc(-c3cnccn3)cn2)c(C)c1-c1ccnc(N)c1 [compound 79]
5 to 100 nM |  | Cc1nn(CC(=O)Nc2ncc(-c3cnccn3)cc2C#N)c(C)c1-c1ccnc(C(F)(F)F)c1 [compound 80]
< 5 nM |  | Cc1nn(C(C)C(=O)Nc2ccc(-c3cnccn3)cn2)c(C)c1C1=CCOCC1 (stereo not shown) [compound 81]
< 5 nM |  | Cc1nn(CC(=O)Nc2ccc(-c3cnccn3)cn2)c(C)c1C1=CC(C)OC(C)C1 (stereo not shown) [compound 82]
5 to 100 nM |  | Cc1nn(C(=O)C(C)(C)Nc2ccc(-c3cnccn3)cn2)c(C)c1C1=CCCOC1 [compound 83]
< 5 nM |  | Cc1nn(CC(=O)Nc2ccc(-c3cncnc3)cn2)c(C)c1C1=CC(C)OC(C)C1 (stereo not shown) [compound 84]
< 5 nM |  | Cc1cc(-c2nc(C)n(CC(=O)Nc3ccc(-c4cnccn4)cn3)c2C)ccn1 [compound 86]
< 5 nM |  | Cc1cc(-c2ncn(CC(=O)Nc3ccc(-c4cnccn4)cn3)c2C)ccn1 [compound 87]
5 to 100 nM |  | Cc1nn(CC(=O)Nc2ccc(-c3cnccn3)cn2)cc1C1=CCOCC1 [compound 89]
5 to 100 nM |  | Cc1nn(CC(=O)Nc2ccc(-c3cnccn3)cn2)c(C)c1C1CC(C)OC(C)C1 (stereo not shown) [compound 92]
5 to 100 nM |  | Cc1nn(CC(=O)Nc2ccc(-c3ccnc(N(C)C)c3)cn2)cc1-c1ccnc(C(F)(F)F)c1 [compound 94]
< 5 nM |  | O=C(Cn1cc(-c2ccnc(C(F)(F)F)c2)c(C(F)(F)F)n1)Nc1ccc(-c2cnccn2)cn1 [compound 95]

More lines, now with the values behind:

Structure (SMILES) | IC50 (category of IC50) | IC50
Cc1cc(-c2cnn(CC(=O)Nc3ccc(N4CCN(C(=O)OC(C)(C)C)CC4)cn3)c2)ccn1 [compound 8] | 5 to 100 nM | 
O=C(Cn1cnc(-c2ccnc(C(F)(F)F)c2)c1)Nc1ccc(-c2cncnc2)nc1 [compound 11] | > 100 nM | 
O=C(Cn1cnc(-c2ccnc(C(F)(F)F)c2)c1)Nc1ccc(-c2cnccn2)nc1 [compound 13] | 5 to 100 nM | 
O=C(Cc1cc(-c2ccnc(C(F)(F)F)c2)cs1)Nc1ccc(-c2cnccn2)cn1 [compound 23] | < 5 nM | 0.34 nM
Cc1cc(-c2csc(CC(=O)Nc3ccc(-c4cnccn4)cn3)c2)ccn1 [compound 24] | < 5 nM | 
O=C(Cn1cc(-c2cnsc2)cn1)Nc1ccc(-c2cnccn2)cn1 [compound 27] | 5 to 100 nM | 
O=C(Cc1cc(C2=CCOCC2)cs1)Nc1ccc(-c2cnccn2)cn1 [compound 28] | 5 to 100 nM | 
Cn1nccc1-c1csc(CC(=O)Nc2ccc(-c3cnccn3)cn2)c1 [compound 31] | 5 to 100 nM | 
Cn1nccc1-c1cn(CC(=O)Nc2ccc(-c3cnccn3)cn2)cn1 [compound 32] | > 100 nM | 
O=C(Cn1cc(-c2cn[nH]c2)cn1)Nc1ccc(-c2cnccn2)cn1 [compound 33] | > 100 nM | 
O=C(Cn1cc(-c2ccnc(C(F)(F)F)c2)cn1)Nc1ccc(-c2cncnc2)cn1 [compound 34] | < 5 nM | 
Cc1nn(CC(=O)Nc2ccc(-c3cncnc3)cn2)c(C)c1-c1ccnc(C(F)(F)F)c1 [compound 35] | < 5 nM | 0.34 nM
Cc1noc(C)c1-c1cnn(CC(=O)Nc2ccc(-c3cnccn3)cn2)c1 [compound 36] | 5 to 100 nM | 
O=C(Cn1cc(-c2ccnc(C(F)(F)F)n2)cn1)Nc1ccc(-c2cnccn2)cn1 [compound 37] | < 5 nM | 
Cc1nccc(-c2cnn(CC(=O)Nc3ccc(-c4cnccn4)cn3)c2)n1 [compound 38] | 5 to 100 nM | 
Cc1cc(-c2cnn(CC(=O)Nc3ccc(-c4cnccn4)cn3)c2)ncn1 [compound 39] | > 100 nM | 
Cc1nn(CC(=O)Nc2ccc(-c3cnccn3)cn2)c(C)c1C1CCOCC1 [compound 40] | < 5 nM | 
O=C(Cn1cc(-c2cc(C(F)(F)F)ncn2)cn1)Nc1ccc(-c2cnccn2)cn1 [compound 41] | 5 to 100 nM | 
O=C(Cn1cnc(C2=CCNCC2)c1)Nc1ccc(-c2cnccn2)cn1 [compound 42] | > 100 nM | 
CC(C)n1nccc1-c1cnn(CC(=O)Nc2ccc(-c3cnccn3)cn2)c1 [compound 43] | > 100 nM | 

Structure (SMILES) | IC50 (category of IC50) | IC50
Cc1nn(CC(=O)Nc2ccc(-c3cnccn3)cn2)c(C)c1-c1ccnn1C1CCCC1 [compound 47] | > 100 nM | 
Cc1nn(CC(=O)Nc2ccc(-c3cnccn3)cn2)c(C)c1-c1ccnn1C [compound 50] | 5 to 100 nM | 
Cc1cc(-c2c(C)nn(CC(=O)Nc3ccc(-c4cnccn4)cn3)c2C)cnn1 [compound 51] | 5 to 100 nM | 
Cc1nn(CC(=O)Nc2ccc(-c3cccnc3)cn2)c(C)c1-c1ccnc(C(F)(F)F)c1 [compound 52] | < 5 nM | 
Cc1nn(CC(=O)Nc2ccc(-c3cnccn3)cn2)c(C)c1C1=CCNCC1 [compound 53] | > 100 nM | 
Cc1nn(CC(=O)Nc2ccc(-c3cnccn3)cn2)c(C)c1-c1cc(Cl)ncn1 [compound 57] | 5 to 100 nM | 
Cc1nn(CC(=O)Nc2ccc(-c3cnccn3)cn2)c(C)c1-c1cnn(C2CC2)c1 [compound 58] | 5 to 100 nM | 
Cc1nn(CC(=O)Nc2ccc(-c3ccccc3C#N)cn2)c(C)c1-c1ccnc(C(F)(F)F)c1 [compound 59] | < 5 nM | 
Cc1nn(CC(=O)Nc2ccc(-c3cnccn3)cn2)c(C)c1-c1ccnc(F)c1 [compound 61] | < 5 nM | 
Cc1nn(CC(=O)Nc2ccc(C3=CCS(=O)(=O)CC3)cn2)c(C)c1-c1ccnc(C(F)(F)F)c1 [compound 63] | 5 to 100 nM | 
COc1ccc(-c2c(C)nn(CC(=O)Nc3ccc(-c4cnccn4)cn3)c2C)cn1 [compound 64] | 5 to 100 nM | 
Cc1nn(CC(=O)Nc2ccc(-c3ccc(C#N)nc3)cn2)c(C)c1-c1ccnc(C(F)(F)F)c1 [compound 66] | < 5 nM | 
Cc1nn(CC(=O)Nc2ccc(C3CCOCC3)cn2)c(C)c1-c1ccnc(C(F)(F)F)c1 [compound 69] | 5 to 100 nM | 
Cc1nn(CC(=O)Nc2ncc(-c3cnccn3)cc2F)c(C)c1-c1ccnc(C(F)(F)F)c1 [compound 73] | 5 to 100 nM | 
Cc1cc(-c2cnccn2)cnc1NC(=O)Cn1nc(C)c(-c2ccnc(C(F)(F)F)c2)c1C [compound 76] | > 100 nM | 
COc1cc(-c2cnccn2)cnc1NC(=O)Cn1nc(C)c(-c2ccnc(C(F)(F)F)c2)c1C [compound 77] | 5 to 100 nM | 
Cc1nn(CC(=O)Nc2ccc(-c3ncccn3)cn2)c(C)c1C1=CC(C)OC(C)C1 (stereo not shown) [compound 85] | 5 to 100 nM | 
O=C(Cn1cc(C2=CCOCC2)c(C(F)(F)F)n1)Nc1ccc(-c2cnccn2)cn1 [compound 88] | < 5 nM | 
Cc1cc(-c2cn(CC(=O)Nc3ccc(-c4cnccn4)cn3)nc2C)ccn1 [compound 90] | < 5 nM | 
Cc1cc(-c2cn(CC(=O)Nc3ccc(-c4cncnc4)cn3)nc2C)ccn1 [compound 91] | < 5 nM | 
